Laboratory results: patent US20240226079A1, “TOPICAL ANAESTHETIC COMPOSITION HAVING IMPROVED VASOCONSTRICTOR STABILITY” (Animal Ethics Pty Ltd, priority 2021, published 2024)
Read-outs that look alike come from different tables or passages of the source. One block for each compound: values may come before it.

Assay: Forced degradation studies of the drug substances
Text: Table 4 summarises information on the relative chemical stability of the drug substances, obtained in forced degradation studies.

Compound: Cetrimide
% Degradation (Acid, 8 Weeks): 0.4%
% Degradation (Base, 8 Weeks): 0.9%
% Degradation (Heat, 8 Weeks): 0.5%
% Degradation (Light, 51 × 10^6 lux hrs): 8.9%
% Degradation (Oxidation 1, 8 Weeks): −0.2%
% Degradation (Oxidation 2, 8 Weeks): 1.0%
% Degradation (Reduction, 8 Weeks): 8.4%

Compound: CCN(CC)CC(=O)Nc1c(C)cccc1C [Lignocaine]
% Degradation (Acid, 8 Weeks): −0.3%
% Degradation (Base, 8 Weeks): 1.1%
% Degradation (Heat, 8 Weeks): 1.1%
% Degradation (Light, 51 × 10^6 lux hrs): 9.9%
% Degradation (Oxidation 1, 8 Weeks): −0.2%
% Degradation (Oxidation 2, 8 Weeks): 3.3%
% Degradation (Reduction, 8 Weeks): −0.3%

% Degradation: 11.2%
Compound: CCCCN1CCCCC1C(=O)Nc1c(C)cccc1C (stereo not shown) [Bupivacaine]

% Degradation: 51.6%
Compound: CNCC(O)c1ccc(O)c(O)c1 (stereo not shown) [Adrenaline]
